Test results from patent US9701670B2, “Pyrazolyl-ureas as kinase inhibitors” (RESPIVERT LIMITED, priority 2013, dated 2017).

Key:
[1] = tested on: Differentiated U937 cells; assay: (l) Cell viability: MTT assay; format: cell-based, human; details: 1 μg/mL
Method: Differentiated U937 cells are pre-incubated with each test compound (final concentration 1 μg/mL or 10 μg/mL in 200 μL media indicated below) under two protocols: the first for 4 hr in 5% FCS RPMI1640 media and the second in 10% FCS RPMI1640 media for 24 h. The supernatant is replaced with new media (200 μL) and MTT stock solution (10 μL, 5 mg/mL) is added to each well. After incubation for 1 hr the media are removed, DMSO (200 μL) is added to each well and the plates are shaken lightly for 1 hr prior to reading the absorbance at 550 nm. The percentage loss of cell viability is calculated for each well relative to vehicle (0.5% DMSO) treatment. Consequently an apparent increase in cell viability for drug treatment relative to vehicle is tabulated as a negative percentage.

[2] = molecular target: p38 MAPKα isoform (MAPK14) (Homo sapiens (Human), UniProt Q16539); assay: p38 MAPKα enzyme inhibition (FRET, Z-LYTE), Method 1; format: biochemical; details: Method 1 (Table 4a1)
Sequence of p38 MAPKα isoform (MAPK14) (Q16539 whole entry, canonical isoform): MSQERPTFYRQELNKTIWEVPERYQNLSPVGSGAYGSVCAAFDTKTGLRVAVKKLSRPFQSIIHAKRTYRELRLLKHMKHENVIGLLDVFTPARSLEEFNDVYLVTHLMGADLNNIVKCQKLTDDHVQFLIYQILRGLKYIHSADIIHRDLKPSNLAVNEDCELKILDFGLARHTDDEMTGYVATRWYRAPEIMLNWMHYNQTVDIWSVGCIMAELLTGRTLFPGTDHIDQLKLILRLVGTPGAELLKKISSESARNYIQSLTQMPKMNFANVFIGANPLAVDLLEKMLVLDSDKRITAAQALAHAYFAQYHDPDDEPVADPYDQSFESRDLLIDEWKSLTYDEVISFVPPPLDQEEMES
Method: The enzyme inhibitory activities of compounds disclosed herein are determined by FRET using synthetic peptides labelled with both donor and acceptor fluorophores (Z-LYTE, Invitrogen Ltd., Paisley, UK).
The inhibitory activities of test compounds against the p38 MAPKα isoform (MAPK14: Invitrogen), are evaluated indirectly by determining the level of activation/phosphorylation of the down-stream molecule, MAPKAP-K2. The p38 MAPKα protein (80 ng/mL, 2.5 μL) is mixed with the test compound (2.5 μL of either 4 μg/mL, 0.4 μg/mL, 0.04 μg/mL or 0.004 μg/mL) for 2 hr at RT. […] The mixture is incubated for 1 hr at RT. Development reagent (protease, 5 μL) is added for 1 hr prior to detection in a fluorescence microplate reader (Varioskan® Flash, ThermoFisher Scientific).
In all cases, the site-specific protease cleaves non-phosphorylated peptide only and eliminates the FRET signal. Phosphorylation levels of each reaction are calculated using the ratio of coumarin emission (donor) over fluorescein emission (acceptor), for which high ratios indicate high phosphorylation and low ratios indicate low phosphorylation levels.

SMILES: COc1cc(Nc2nccc(Oc3ccc(NC(=O)Nc4cc(C(C)C)nn4-c4ccc(OC)nc4)c4ccccc34)n2)cc(C(=O)NCCN2CCOCC2)c1 [Example 10, 3-((4-((4-(3-(3-Isopropyl-1-(6-methoxypyridin-3-yl)-1H-pyrazol-5-yl)ureido)naphthalen-1-yl)oxy)pyrimidin-2-yl)amino)-5-methoxy-N-(2-morpholinoethyl)benzamide]
- Cell viability at time point in d-U937 cells 4 h [1]: −ve (−ve and +ve indicate that the value is below and above respectively, the no significant effect threshold, defined as 30% inhibition at 1 μg/mL at the time point indicated.)
- Cell viability at time point in d-U937 cells 24 h [1]: −ve (−ve and +ve indicate that the value is below and above respectively, the no significant effect threshold, defined as 30% inhibition at 1 μg/mL at the time point indicated.)
- IC50 [2]: 6 nM

SMILES: COc1ccc(-n2nc(C(C)C)cc2NC(=O)Nc2ccc(Oc3ccnc(Nc4cc(OC)cc(C(=O)NCCO)c4)n3)c3ccccc23)cc1 [Example 65, N-(2-hydroxyethyl)-3-((4-((4-(3-(3-isopropyl-1-(4-methoxyphenyl)-1H-pyrazol-5-yl)ureido)naphthalen-1-yl)oxy)pyrimidin-2-yl)amino)-5-methoxybenzamide]
- Cell viability at time point in d-U937 cells 4 h [1]: −ve (−ve and +ve indicate that the value is below and above respectively, the no significant effect threshold, defined as 30% inhibition at 1 μg/mL at the time point indicated.)
- Cell viability at time point in d-U937 cells 24 h [1]: −ve (−ve and +ve indicate that the value is below and above respectively, the no significant effect threshold, defined as 30% inhibition at 1 μg/mL at the time point indicated.)
- IC50 [2]: 23 nM

SMILES: Cc1ccc(-n2nc(C(C)(C)C)cc2NC(=O)Nc2ccc(Oc3ccnc(Nc4cccc(C(=O)N5CCOCC5)c4)n3)c3ccccc23)cc1 [Example 27, 1-(3-(tert-butyl)-1-(p-tolyl)-1H-pyrazol-5-yl)-3-(4-((2-((3-(morpholine-4-carbonyl)phenyl)amino)pyrimidin-4-yl)oxy)naphthalen-1-yl)urea]
- Cell viability at time point in d-U937 cells 4 h [1]: −ve (−ve and +ve indicate that the value is below and above respectively, the no significant effect threshold, defined as 30% inhibition at 1 μg/mL at the time point indicated.)
- Cell viability at time point in d-U937 cells 24 h [1]: −ve (−ve and +ve indicate that the value is below and above respectively, the no significant effect threshold, defined as 30% inhibition at 1 μg/mL at the time point indicated.)
- IC50 [2]: 17 nM

SMILES: COc1ccc(C(=O)NCCO)cc1Nc1nccc(Oc2ccc(NC(=O)Nc3cc(C(C)(C)C)nn3-c3ccc(C)cc3)c3ccccc23)n1 [Example 33, 3-((4-((4-(3-(3-(tert-butyl)-1-(p-tolyl)-1H-pyrazol-5-yl)ureido)naphthalen-1-yl)oxy)pyrimidin-2-yl)amino)-N-(2-hydroxyethyl)-4-methoxybenzamide]
- Cell viability at time point in d-U937 cells 4 h [1]: −ve (−ve and +ve indicate that the value is below and above respectively, the no significant effect threshold, defined as 30% inhibition at 1 μg/mL at the time point indicated.)
- Cell viability at time point in d-U937 cells 24 h [1]: −ve (−ve and +ve indicate that the value is below and above respectively, the no significant effect threshold, defined as 30% inhibition at 1 μg/mL at the time point indicated.)
- IC50 [2]: 4 nM

SMILES: Cc1ccc(-n2nc(C3(C)COC3)cc2NC(=O)Nc2ccc(Oc3ccnc(Nc4cccc(C(=O)NCCN5CCOCC5)c4)n3)c3ccccc23)cc1 [Example 22, 3-((4-((4-(3-(3-(3-methyloxetan-3-yl)-1-(p-tolyl)-1H-pyrazol-5-yl)ureido)naphthalen-1-yl)oxy)pyrimidin-2-yl)amino)-N-(2-morpholinoethyl)benzamide]
- Cell viability at time point in d-U937 cells 4 h [1]: −ve (−ve and +ve indicate that the value is below and above respectively, the no significant effect threshold, defined as 30% inhibition at 1 μg/mL at the time point indicated.)
- Cell viability at time point in d-U937 cells 24 h [1]: −ve (−ve and +ve indicate that the value is below and above respectively, the no significant effect threshold, defined as 30% inhibition at 1 μg/mL at the time point indicated.)
- IC50 [2]: < 1 nM

SMILES: Cc1ccc(-n2nc(C(C)C)cc2NC(=O)Nc2ccc(Oc3ccnc(Nc4cc(C)cc(C(=O)NCCN5CCOCC5)c4)n3)c3ccccc23)cc1 [Example 44, 3-((4-((4-(3-(3-isopropyl-1-(p-tolyl)-1H-pyrazol-5-yl)ureido)naphthalen-1-yl)oxy)pyrimidin-2-yl)amino)-5-methyl-N-(2-morpholinoethyl)benzamide]
- Cell viability at time point in d-U937 cells 4 h [1]: −ve (−ve and +ve indicate that the value is below and above respectively, the no significant effect threshold, defined as 30% inhibition at 1 μg/mL at the time point indicated.)
- Cell viability at time point in d-U937 cells 24 h [1]: −ve (−ve and +ve indicate that the value is below and above respectively, the no significant effect threshold, defined as 30% inhibition at 1 μg/mL at the time point indicated.)
- IC50 [2]: < 1 nM

SMILES: COc1cc(Nc2nccc(Oc3ccc(NC(=O)Nc4cc(C(C)C)nn4-c4ccc(C)c(C)c4)c4ccccc34)n2)cc(C(=O)NCCN2CCOCC2)c1 [Example 56, 3-((4-((4-(3-(1-(3,4-dimethylphenyl)-3-isopropyl-1H-pyrazol-5-yl)ureido)naphthalen-1-yl)oxy)pyrimidin-2-yl)amino)-5-methoxy-N-(2-morpholinoethyl)benzamide]
- Cell viability at time point in d-U937 cells 4 h [1]: −ve (−ve and +ve indicate that the value is below and above respectively, the no significant effect threshold, defined as 30% inhibition at 1 μg/mL at the time point indicated.)
- Cell viability at time point in d-U937 cells 24 h [1]: −ve (−ve and +ve indicate that the value is below and above respectively, the no significant effect threshold, defined as 30% inhibition at 1 μg/mL at the time point indicated.)
- IC50 [2]: < 1 nM

SMILES: COc1cc(Nc2nccc(Oc3ccc(NC(=O)Nc4cc(C(C)(C)C)nn4-c4ccc(C)cc4)c4ccccc34)n2)cc(C(=O)NCCO)c1 [Example 64, 3-((4-((4-(3-(3-(tert-butyl)-1-(p-tolyl)-1H-pyrazol-5-yl)ureido)naphthalen-1-yl)oxy)pyrimidin-2-yl)amino)-N-(2-hydroxyethyl)-5-methoxybenzamide]
- Cell viability at time point in d-U937 cells 4 h [1]: −ve (−ve and +ve indicate that the value is below and above respectively, the no significant effect threshold, defined as 30% inhibition at 1 μg/mL at the time point indicated.)
- Cell viability at time point in d-U937 cells 24 h [1]: −ve (−ve and +ve indicate that the value is below and above respectively, the no significant effect threshold, defined as 30% inhibition at 1 μg/mL at the time point indicated.)
- IC50 [2]: 8 nM

SMILES: COc1ccc(-n2nc(C3(C)COC3)cc2NC(=O)Nc2ccc(Oc3ccnc(Nc4cccc(C(=O)NCCN5CCOCC5)c4)n3)c3ccccc23)cc1 [Example 23, 3-((4-((4-(3-(1-(4-methoxyphenyl)-3-(3-methyloxetan-3-yl)-1H-pyrazol-5-yl)ureido)naphthalen-1-yl)oxy)pyrimidin-2-yl)amino)-N-(2-morpholinoethyl)benzamide]
- Cell viability at time point in d-U937 cells 4 h [1]: −ve (−ve and +ve indicate that the value is below and above respectively, the no significant effect threshold, defined as 30% inhibition at 1 μg/mL at the time point indicated.)
- Cell viability at time point in d-U937 cells 24 h [1]: −ve (−ve and +ve indicate that the value is below and above respectively, the no significant effect threshold, defined as 30% inhibition at 1 μg/mL at the time point indicated.)
- IC50 [2]: < 1 nM

SMILES: Cc1ccc(-n2nc(C(C)(C)C)cc2NC(=O)Nc2ccc(Oc3ccnc(Nc4cccc(C(N)=O)c4)n3)c3ccccc23)cc1 [Example 2, 3-((4-((4-(3-(3-(tert-Butyl)-1-(p-tolyl)-1H-pyrazol-5-yl)ureido)naphthalen-1-yl)oxy)pyrimidin-2-yl)amino)benzamide]
- Cell viability at time point in d-U937 cells 4 h [1]: −ve (−ve and +ve indicate that the value is below and above respectively, the no significant effect threshold, defined as 30% inhibition at 1 μg/mL at the time point indicated.)
- Cell viability at time point in d-U937 cells 24 h [1]: −ve (−ve and +ve indicate that the value is below and above respectively, the no significant effect threshold, defined as 30% inhibition at 1 μg/mL at the time point indicated.)
- IC50 [2]: 27 nM

SMILES: COc1ccc(C(=O)NCCN2CCOCC2)cc1Nc1nccc(Oc2ccc(NC(=O)Nc3cc(C(C)(C)C)nn3-c3ccc(C)cc3)c3ccccc23)n1 [Example 31, 3-((4-((4-(3-(3-(tert-butyl)-1-(p-tolyl)-1H-pyrazol-5-yl)ureido)naphthalen-1-yl)oxy)pyrimidin-2-yl)amino)-4-methoxy-N-(2-morpholinoethyl)benzamide]
- Cell viability at time point in d-U937 cells 4 h [1]: −ve (−ve and +ve indicate that the value is below and above respectively, the no significant effect threshold, defined as 30% inhibition at 1 μg/mL at the time point indicated.)
- Cell viability at time point in d-U937 cells 24 h [1]: −ve (−ve and +ve indicate that the value is below and above respectively, the no significant effect threshold, defined as 30% inhibition at 1 μg/mL at the time point indicated.)
- IC50 [2]: 8 nM
